Measurements: patent US20250034135A1, “ANTI-APOPTOTIC PROTEIN BCL-2 INHIBITOR, PHARMACEUTICAL COMPOSITION AND USES THEREOF” (HANGZHOU HEALZEN THERAPEUTICS CO., LTD., priority 2021, published 2025)

Each compound was assayed against BCL2 (Homo sapiens (Human), UniProt P10415) (assay: Molecular level activity test of anti-apoptotic protein BCL2 (HTRF, binding to Bim peptide)). Details: HTRF, binding of BCL2 to Bim peptide; read-out: BCL2 nM (inhibitory activity, IC50).
Description: The detection of the binding ability between anti-apoptotic protein BCL2 and pro-apoptotic protein Bim was performed using Homogeneous Time-Resolved Fluorescence technology. The reaction of this method occurred in a white shallow 384-well plate, with a total reaction volume of 10 μL. Specifically, it included 2 μL of the compound to be tested (2% DMSO), 4 μL His-tagged recombinant protein, and 4 μL Biotin-tagged BIM protein peptide. After 1 hour of reaction, 5 μL of each Anti-His and streptavidin-tagged XL665 antibody diluents diluted with a detection buffer were added. After incubating at room temperature for 4 hours, the values were read using the Envision multifunctional microplate reader to detect the effect of the compound to be tested on the binding ability of BCL2 to Bim protein peptides.

Chain of BCL2 (P10415 whole entry): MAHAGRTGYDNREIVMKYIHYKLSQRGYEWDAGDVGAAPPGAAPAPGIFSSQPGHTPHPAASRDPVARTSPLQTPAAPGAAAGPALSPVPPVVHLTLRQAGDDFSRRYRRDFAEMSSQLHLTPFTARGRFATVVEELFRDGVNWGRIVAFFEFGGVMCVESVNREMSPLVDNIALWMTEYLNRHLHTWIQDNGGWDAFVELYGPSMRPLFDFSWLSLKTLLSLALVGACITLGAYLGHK

IC50, < 10 nM:
CC(C)c1ccccc1[C@@H]1CN(Cc2cnn(C)c2)CCN1C1CC2(CCN(c3cc(Oc4cnc5[nH]ccc5c4)c(C(=O)NS(=O)(=O)c4ccc(NC[C@H]5CC[C@](C)(O)CC5)c([N+](=O)[O-])c4)cc3F)CC2)C1 [compound 229, 2-((1H-pyrrolo[2,3-b]pyrid-5-yl)oxy)-5-fluoro-N-((4-((((1r, 4r)-4-hydroxy-4-methylcyclohexyl)methyl)amino)-3-nitrophenyl)sulfonyl)-4-(2-((R)-2-(2-isopropylphenyl)-4-((1-methyl-1H-pyrazole-4-yl)methyl)piperazin-1-yl)-7-azaspiro[3.5]non-7-yl)benzamide]
COc1ccc(CN2CCN(C3CC4(C3)CN(c3cc(Oc5cnc6[nH]ccc6c5)c(C(=O)NS(=O)(=O)c5cc([N+](=O)[O-])c(NC[C@H]6CC[C@](C)(O)CC6)c6[nH]cnc56)cn3)C4)C(c3ccccc3C(C)C)C2)cc1 (stereo partly drawn) [compound 068, 4-((1H-pyrrolo[2,3-b]pyrid-5-yl)oxy)-N-((7-((((1r,4r)-4-hydroxy-4-methylcyclohexyl)methyl)amino)-6-nitro-1H-benzo[d]imidazol-4-yl)sulfonyl)-6-(6-(2-(2-isopropylphenyl)-4-(4-methoxybenzyl)piperazin-1-yl)-2-azaspiro[3.3]hept-2-yl) nicotinamide]
COc1ccc(CN2CCN(C3CC4(CCN(c5cc(Oc6cnc7[nH]ccc7c6)c(C(=O)NS(=O)(=O)c6cc([N+](=O)[O-])c(NC[C@H]7COCCO7)c7c6OCO7)cc5F)CC4)C3)[C@H](c3ccccc3C(C)C)C2)cc1 [compound 123]
CC(C)c1ccccc1[C@@H]1CN(Cc2ccccn2)CCN1C1CC2(CCN(c3cc(Oc4cnc5[nH]ccc5c4)c(C(=O)NS(=O)(=O)c4ccc(NC[C@H]5CC[C@](C)(O)CC5)c([N+](=O)[O-])c4)cc3F)CC2)C1 [compound 233, 2-((1H-pyrrolo[2,3-b]pyrid-5-yl)oxy)-5-fluoro-N-((4-((((1r, 4r)-4-hydroxy-4-methylcyclohexyl)methyl)amino)-3-nitrophenyl)sulfonyl)-4-(2-((R)-2-(2-isopropylphenyl)-4-(pyrid-2-ylmethyl)piperazin-1-yl)-7-azaspiro[3.5]non-7-yl)benzamide]
CC(C)c1ccccc1[C@@H]1CCCN1C1CC2(CCN(c3cc(Oc4cnc5[nH]ccc5c4)c(C(=O)NS(=O)(=O)c4cc([N+](=O)[O-])c(NCC5(F)CCN(C(C)C)CC5)c5[nH]cnc45)cc3F)CC2)C1 [compound 022, (S)-2-((1H-pyrrolo[2,3-b]pyrid-5-yl)oxy)-5-fluoro-N-((7-(((4-fluoro-1-isopropylpiperid-4-yl)methyl)amino)-6-nitro-1H-benzo[d]imidazol-4-yl)sulfonyl)-4-(2-(2-(2-isopropylphenyl)pyrrolidin-1-yl)-7-azaspiro[3.5]non-7-yl)benzamide]
COc1cc(CN2CCN(C3CC4(CCN(c5cc(Oc6cnc7[nH]ccc7c6)c(C(=O)NS(=O)(=O)c6ccc(NC[C@H]7CC[C@](C)(O)CC7)c([N+](=O)[O-])c6)cc5F)CC4)C3)[C@H](c3ccccc3C(C)C)C2)cc2cc(C)oc12 [compound 225, 2-((1H-pyrrolo[2,3-b]pyrid-5-yl)oxy)-5-fluoro-N-((4-((((1r, 4r)-4-hydroxy-4-methylcyclohexyl)methyl)amino)-3-nitrophenyl)sulfonyl)-4-(2-((R)-2-(2-isopropylphenyl)-4-((7-methoxy-2-methylbenzofuran-5-yl)methyl)piperazin-1-yl)-7-azaspiro[3.5]non-7-yl)benzamide]
COc1ccc(CN2CCN(C3CC4(CCN(c5cc(Oc6cnc7[nH]ccc7c6)c(C(=O)NS(=O)(=O)c6cc([N+](=O)[O-])c(NCC7CCOCC7)c7ocnc67)cc5F)CC4)C3)[C@H](c3ccccc3C(C)C)C2)cc1 [compound 121, (R)-2-((1H-pyrrolo[2,3-b]pyrid-5-yl)oxy)-5-fluoro-4-(2-(2-(2-isopropylphenyl)-4-(4-methoxybenzyl)piperazin-1-yl)-7-azaspiro[3.5]non-7-yl)-N-((6-nitro-7-(((tetrahydro-2H-pyran-4-yl)methyl)amino)benzo[d]oxazol-4-yl)sulfonyl)benzamide]
COc1ccc(CN2CCN(C3CC4(CCN(c5cc(Oc6cnc7[nH]ccc7c6)c(C(=O)NS(=O)(=O)c6cc([N+](=O)[O-])c(NCC7(F)CCOCC7)c7c6CCO7)cc5F)CC4)C3)[C@H](c3ccccc3C(C)C)C2)cc1 [compound 112, (R)-2-((1H-pyrrolo[2,3-b]pyrid-5-yl)oxy)-5-fluoro-N-((7-(((4-fluorotetrahydro-2H-pyran-4-yl)methyl)amino)-6-nitro-2,3-dihydrobenzofuran-4-yl)sulfonyl)-4-(2-(2-(2-isopropylphenyl)-4-(4-methoxybenzyl)piperazin-1-yl)-7-azaspiro[3.5]non-7-yl)benzamide]
CC(C)c1ccccc1C1CN(C2CCOCC2)CCN1C1CC2(CCN(c3cc(Oc4cnc5[nH]cc(F)c5c4)c(C(=O)NS(=O)(=O)c4ccc(NC[C@H]5CC[C@](C)(O)CC5)c([N+](=O)[O-])c4)cn3)CC2)C1 (stereo partly drawn) [compound 059, 4-((3-fluoro-1H-pyrrolo[2,3-b]pyrid-5-yl)oxy)-N-((4-((((1r,4r)-4-hydroxy-4-methylcyclohexyl)methyl)amino)-3-nitrophenyl)sulfonyl)-6-(2-(2-(2-isopropylphenyl)-4-(tetrahydro-2H-pyran-4-yl)piperazin-1-yl)-7-azaspiro[3.5]non-7-yl) nicotinamide]
COc1ccc(CN2CCN(C3CC4(CCN(c5cc(Oc6cnc7[nH]ccc7c6)c(C(=O)NS(=O)(=O)c6cc([N+](=O)[O-])c(NCC7(F)CCOCC7)c7c6OCO7)cc5F)CC4)C3)[C@H](c3ccccc3C(C)C)C2)c(F)n1 [compound 130, (R)-2-((1H-pyrrolo[2,3-b]pyrid-5-yl)oxy)-5-fluoro-4-(2-(4-((2-fluoro-6-methoxypyrid-3-yl)methyl)-2-(2-isopropylphenyl)piperazin-1-yl)-7-azaspiro[3.5]non-7-yl)-N-((7-(((4-fluorotetrahydro-2H-pyran-4-yl)methyl)amino)-6-nitrobenzo[d][1,3]dioxocyclopent-4-yl)sulfonyl)benzamide]
COc1ccc(CN2CCN(C3CC4(CCN(c5ccc(C(=O)NS(=O)(=O)c6cc([N+](=O)[O-])c(NCC7(F)CCOCC7)c7c6OC(C)(C)O7)c(Oc6cnc7[nH]ccc7c6)c5)CC4)C3)[C@H](c3ccccc3C(C)C)C2)cc1 [compound 162, (R)-2-((1H-pyrrolo[2,3-b]pyrid-5-yl)oxy)-N-((7-(((4-fluorotetrahydro-2H-pyran-4-yl)methyl)amino)-2,2-dimethyl-6-nitrobenzo[d][1,3]dioxocyclopent-4-yl)sulfonyl)-4-(2-(2-(2-isopropylphenyl)-4-(4-methoxybenzyl)piperazin-1-yl)-7-azaspiro[3.5]non-7-yl)benzamide]
COc1ccc(CN2CCN(C3CC4(CCN(c5cc(Oc6cnc7[nH]ccc7c6)c(C(=O)NS(=O)(=O)c6cc([N+](=O)[O-])c(NC[C@H]7CC[C@](C)(O)CC7)c7c6OCCO7)cc5F)CC4)C3)[C@H](c3ccccc3C(C)C)C2)cc1 [compound 118, 2-((1H-pyrrolo[2,3-b]pyrid-5-yl)oxy)-5-fluoro-N-((8-((((1r, 4r)-4-hydroxy-4-methylcyclohexyl)methyl)amino)-7-nitro-2,3-dihydrobenzo[b][1,4]dioxan-5-yl)sulfonyl)-4-(2-((R)-2-(2-isopropylphenyl)-4-(4-methoxybenzyl)piperazin-1-yl)-7-azaspiro[3.5]non-7-yl)benzamide]
COc1ccc(CN2CCN(C3CC4(CCN(c5cc(Oc6cnc7[nH]cc(F)c7c6)c(C(=O)NS(=O)(=O)c6ccc(NC[C@H]7CC[C@](C)(O)CC7)c([N+](=O)[O-])c6)cc5F)CC4)C3)C(c3ccccc3C(C)C)C2)cc1 (stereo partly drawn) [compound 060, 5-fluoro-2-((3-fluoro-1H-pyrrolo[2,3-b]pyrid-5-yl)oxy)-N-((4-((((1r,4r)-4-hydroxy-4-methylcyclohexyl)methyl)amino)-3-nitrophenyl)sulfonyl)-4-(2-(2-(2-isopropylphenyl)-4-(4-methoxybenzyl)piperazin-1-yl)-7-azaspiro[3.5]non-7-yl)benzamide]
CC(C)c1ccccc1[C@@H]1CCCN1C1CC2(CCN(c3ccc(C(=O)NS(=O)(=O)c4cc([N+](=O)[O-])c(NC[C@H]5COCCO5)c5c4OCO5)c(Oc4cnc5[nH]ccc5c4)c3)CC2)C1 [compound 161, N-((7-((((S)-1,4-dioxan-2-yl)methyl)amino)-6-nitrobenzo[d][1,3]dioxocyclopent-4-yl)sulfonyl)-2-((1H-pyrrolo[2,3-b]pyrid-5-yl)oxy)-4-(2-((S)-2-(2-isopropylphenyl)pyrrolidin-1-yl)-7-azaspiro[3.5]non-7-yl)benzamide]
CC(C)c1ccccc1[C@@H]1CCCN1C1CC2(CCN(c3cc(Oc4cnc5[nH]ccc5c4)c(C(=O)NS(=O)(=O)c4cc([N+](=O)[O-])c(NC[C@H]5CC[C@](C)(O)CC5)c5scnc45)cc3F)CC2)C1 [compound 098, 2-((1H-pyrrolo[2,3-b]pyrid-5-yl)oxy)-5-fluoro-N-((7-((((1r, 4r)-4-hydroxy-4-methylcyclohexyl)methyl)amino)-6-nitrobenzo[d]thiazol-4-yl)sulfonyl)-4-(2-((S)-2-(2-isopropylphenyl)pyrrolidin-1-yl)-7-azaspiro[3.5]non-7-yl)benzamide]
